Here are results for two compounds from patent publication US20070129385A1, “Amorphous valganciclovir hydrochloride” (priority 2003, published 2007).

The conditions of series [1]: administered orally; cited from earlier work.
For the next series, the system named is human cytomegalovirus. Particulars: in vitro and in vivo; cited from earlier work.
The nature of series [2]: storage stability of the solid amorphous form. The series is classed as physicochemical. The text has this: Solid amorphous valganciclovir hydrochloride is provided herein. The amorphous valganciclovir hydrochloride can be produced with no detectable crystalline valganchloride hydrochloride present, based on XRD investigations having a limit of detection of 0.5%.
The mixture of amorphous valganciclovir hydrochloride containing some crystalline form is then substantially converted to an amorphous form by dissolving it in water (optionally containing an organic solvent) followed by spray-drying of the solution as described earlier. Crystalline formation at this stage can be inhibited by storage under nitrogen in the strict absence of atmosphere or other water. The amorphous material has been found stable for up to at least 3 months with proper storage.

Counter-ions that a name gives are not always drawn.

In the case of `Nc1nc(O)c2ncn(COC(CO)CO)c2n1` [Ganciclovir], the rate of absorption entry in series [1] is “very low rate of absorption”. Also, in the series on human cytomegalovirus, the “replication of human cytomegalovirus” value was “inhibits replication of human cytomegalovirus in vitro and in vivo”.
Turning to `CC(C)[C@@H](N)C(=O)OCC(CO)OCn1cnc2c(O)nc(N)nc21` (stereo partly drawn) [Amorphous valganciclovir hydrochloride, L-valinate ester of 2-(2-amino-1,6-dihydro-6-oxo-purin-9-yl)-methoxy-3-hydroxy-1-propanyl hydrochloride salt], the “time for which the material was found stable” value in series [2] (proper storage (under nitrogen, absence of water)) is on record as “at least 3 months”. In addition, the stability on storage entry in series [2] (stored under controlled humidity conditions) is reported as “stable when stored under controlled humidity conditions”. In addition, the “stability profile compared with the crystalline form” value in series [2] (versus existing crystalline form) is “superior stability profile to the existing crystalline form”.
